“And” between values parts separate entries of the source, which are not always exact repeats. Equal values may be shown once. Read-outs that look alike come from different tables or passages of the source.
Experiments:
[1] = test system: passive cutaneous anaphylaxis (PCA); assay: Anti-passive cutaneous anaphylaxis (PCA) activity in rats (Test Example 2); type: in vivo, Wistar strain rats; conditions: Rattus norvegicus, N 10; for inhibition in vivo at 10 mg/kg: 10 mg/kg PO; for inhibition in vivo at 50 mg/kg: 50 mg/kg PO; for inhibition in vivo at 100 mg/kg: 100 mg/kg PO
Outline: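 Antiserum from Wistar rats sensitized with ovalbumin (alum plus B. pertussis adjuvant) was diluted 16- or 32-fold and injected into dorsal skin of naive rats, which were held 48 h. Compound was given orally 1 h before i.v. ovalbumin plus Evans blue.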

[2] = test system: anaphylaxis reaction to inhalated antigen; assay: Antigen inhalation test on passive sensitized guinea pig (experimental asthma model); type: in vivo; conditions: 200 mg/kg po
Method: The test compound and Tranilast were respectively suspended at the time of use in 5% gum arabic solution containing 0.1% Tween 80 at the rate of 40 mg/ml, and were perorally administered at the rate of 0.5 ml per 100 g body weight of the animal.
DSCG was dissolved at the time of use in physiological saline solultion for injection at the rate of 5.0 mg/ml, and was intravenously injected at the rate of 0.1 ml per 100 g body weight of the animal.
Anti-ovalbumin rabbit serum diluted with physiological saline solution for injection so as tc contain anti-ovalbumin rabbit antibody at the rate of 0.187 mg N/ml was intravenously administered to guinea pig at the rate of 0.1 ml per 100 g of body weight and it was passively sensitized.
Twenty-four hours later, the suspension of the compound prepared in (1) above was perorally or intravenously administered to the animal. The animal was put in the inhalation chamber one hour after the administration in case of the peroral administration and five minutes after the administration in case of the intravenous administration, and 2% physiological saline solution of antigen ovalbumin was inhaled by spraying. Over 10 minutes' period from the time immediately after the forced inhalation, the time until its fall attributed to anaphylaxis reaction was recorded, and the numbers of alive and dead animals after lapse of 10 minutes were also counted.

[3] = test system: experimental ulcer model (Shay); assay: Anti-ulcer activity in experimental ulcer model (Shay); type: in vivo, Wistar strain male rats
Outline: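 Wistar male rats, 8 weeks old, 5 per group, fasted 48 h, pylorus ligated under ether (Shay method); compound in 0.5% CMC/0.1% Tween 80 given id or ip, vehicle to controls. Stomach removed 8 h later; ulcers scored, gastric juice volume, acidity (alkali titration), pepsin (haemoglobin substrate) expressed as % inhibition versus control mean.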

SRS-A = assay: Anti-SRS-A activity, contraction of guinea pig ileum by crude SRS-A solution; design: key to Anti-SRS-A activity (rate of inhibition against the contraction amount): % inhibition of SRS-A-induced ileum contraction
Method: A piece of lungs of guinea pig sensitized with ovalbumin was incubated with antigen ovalbumin at 37° C. for 20 minutes to obtain a supernatant solution, which was used as a crude SRS-A solution.
A piece of ileum of normal guinea pig was suspended in Magnus tube filled with Tyrode's solution and incubated with the solution of drug to be examined for a certain duration, and the contraction of the piece of ileum induced by adding the above crude SRS-A solution was determined on the basis of the contraction rate attributed to hystamine dihydrochloride 10^-6 M. The rate of inhibition against the contraction amount was taken as anti-SRS-A activity.

[4] = test system: mast cell in abdominal cavity; assay: Inhibition of histamine release from mast cell in abdominal cavity in rat (Test Example 6); type: cell-based
Method: Examination was made on the activity of inhibition of histamine release from mast cell by antigen-antibody reaction.
Swine ascaris extract solution was dinitrophenylated according to Aisen's method, dialysed, and lyophilized. The product was administered as antigen together with Bordetella Pertussis vaccine subcutaneously into the foot pad of rat. Eight days later, blood was taken to obtain antiserum. The PCA titer for this antiserum in rat was 32 to 64.
Heparin-containing PBS was injected intraperitoneally to rat which was sacrificed by exsanguination, after which the abdomen was well massaged to collect the injected PBS, which was purified by washing several times by centrifugation. The number of the mast cells contained in the solution was determined and adjusted to the designed concentration. As to method of sensitizing the cell, the above cell suspension (6 ml, 2×10^6 cells/ml) was treated with anti-DNP-Ascaris rat serum (PCA titer 32) (6 ml) and the mixture was incubated in the presence of hepain at 37° C. for 2 hours.
To the sensitized mast cell suspension the solution of the drug to be tested was added, and the mixture was preliminarily incubated at 37° C. for 12 minutes. After addition of the solution of antigen DNP-Ascaris (final concentration, 20 microgramms/ml), the mixture was further incubated for 20 minutes. After completion of the reaction, the solution was centrifuged (500 G, 10 min.) under a low temperature to obtain a supernatant solution. Histamine contained in the supernatant solution was subjected to fluorometry by crthophthalaldehyde method.

[5] = test system: passive systemic anaphylaxis (PSA); assay: Preventive activity against passive systemic anaphylaxis (PSA) in guinea pig; type: in vivo, Hartley strain female guinea pig
Method: Effect of the compound on prevention of death by passive systemic anaphylaxis was examined in guinea pig.
Normal Hartley strain female guinea pig (body weight, 240-260 g) was sensitized by intravenous administraticn of anti-ovalbumin rabbit serum. It was perorally administered with the compound 11 in the amount of 200 mg/kg. One hour later, it was intravenously administered with 2% physiological saline solution of antigen ovalbumin at the rate of 0.05 ml. Thereafter, the state was observed, and the time (seconds) until death was measured.

[6] = Acute toxicity LD50 in mice (Test Example 8); conditions: mouse, in vivo, one week, Probit method
Method: (§1) ddy-Strain mice (male) and Wistar strain rats were used to obtain LD50 values.
(§2) According to the ordinary procedure, suspension or solution of test sample was administered to the animals. From the number of the died animals until one week after the administration, LD50 values were obtained by Probit method.

[7] = Acute toxicity LD50 in rats (Test Example 8); conditions: rat, in vivo, po; one week; Probit method; read-out: LD50 value (mg/kg body weight) Rat p.o.
Method: as §1, §2

[8] = test system: passive cutaneous anaphylaxis (PCA); assay: Anti-passive cutaneous anaphylaxis activity (PCA) in rats (Test Example 9); type: in vivo; conditions: Rattus norvegicus, po, 50 mg/kg, 10 animals
Outline: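 Antiserum came from Wistar rats sensitized with ovalbumin (aluminium hydroxide plus B. pertussis adjuvant) and bled at day 14. It was diluted 12- and 24-fold and injected into the dorsal skin of naive rats 48 h before challenge.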

[9] = read-out: Average Inhibition Rate (%) Antiserum Dilution: × 16
[10] = read-out: Average Inhibition Rate (%) Antiserum Dilution: × 32

With `O=C(Nc1ccccc1C(=O)O)C(=Cc1ccccc1)C(=O)Nc1ccccc1C(=O)O` [Compound 11, 2,2'-[(1,3-dioxo-2-phenylmethylene-1,3-propanediyl)diimino]bisbenzoic acid] the inhibition in vivo at 10 mg/kg [1, 9] was 23.2%, the inhibition in vivo at 10 mg/kg [1, 10] was 33.1% and the inhibition in vivo at 50 mg/kg [1, 9] was 41.4%. For the same compound, the inhibition in vivo at 50 mg/kg [1, 10] was 39.1%, the inhibition in vivo at 100 mg/kg [1, 9] was 52.9% and the inhibition in vivo at 100 mg/kg [1, 10] was 53.5%. The “Extended rate (%)” value [2] was 43.5%, the “preventive effect on anaphylaxis reaction (in words)” value [2] was “strong preventive effect” and the “Average time for falling Mean ± S.E.” value ([2]; N 5) was 223.0 ± 15.7 s. The “Required time (sec.) for falling and Number of death (#), single animals” value ([2]; N 5, observed 10 minutes, # shows death) was 194 s and 227 s and 248 s and > 600 s, the “Inhibition % Gastric Acidity” value ([3]; id 100 mg/kg) was 4.7% and the “Inhibition % secretion amount of gastric juice” value ([3]; id 100 mg/kg) was 0%. The “Inhibition % total pepsin titer” value ([3]; id 100 mg/kg) was 0%, the “Inhibition % Gastric Acidity” value ([3]; id 200 mg/kg) was 16.5% and the “Inhibition % secretion amount of gastric juice” value ([3]; id 200 mg/kg) was 20.1%. For the same compound, the “Inhibition % total pepsin titer” value ([3]; id 200 mg/kg) was 9.1%, the “Anti-SRS-A activity (rate of inhibition against the contraction amount)” value (SRS-A; 10^-3 M) was 31.8 and the “Anti-SRS-A activity (rate of inhibition against the contraction amount)” value (SRS-A; 10^-4 M) was 0. The “Anti-SRS-A activity (rate of inhibition against the contraction amount)” value (SRS-A; 10^-5 M) was 0, the “Anti-SRS-A activity (rate of inhibition against the contraction amount)” value (SRS-A; 10^-6 M) was 0 and the “anti-SRS-A activity (in words)” value (SRS-A; compound 11 at a concentration of 10^-3 M) was “moderate anti-SRS-A activity”. For the same compound, the activity at 1000 µM ([4]; Rattus norvegicus, Mast cell, 20 min, 10^-3 M, DNP-Ascaris 20 microgramms/ml, read-out: Amount of histamine released from peritoneal mast cell (Control = 100)) was 13%, the activity at 100 µM ([4]; Rattus norvegicus, Mast cell, 20 min, 10^-4 M, DNP-Ascaris 20 microgramms/ml, read-out: Amount of histamine released from peritoneal mast cell (Control = 100)) was 59% and the activity at 10 µM ([4]; Rattus norvegicus, Mast cell, 20 min, 10^-5 M, DNP-Ascaris 20 microgramms/ml, read-out: Amount of histamine released from peritoneal mast cell (Control = 100)) was 51%. For the same compound, the activity at 1 µM ([4]; Rattus norvegicus, Mast cell, 20 min, 10^-6 M, DNP-Ascaris 20 microgramms/ml, read-out: Amount of histamine released from peritoneal mast cell (Control = 100)) was 55%, the “inhibition of release of histamine from the mast cell (in words)” value ([4]; even at the low concentration of 10^-6 M) was “inhibiting release of histamine” and the average living time ([5]; 200 mg/kg perorally, control group 294.9 seconds) was 441.7 s. For the same compound, the “Extended rate (%)” value ([5]; 200 mg/kg po) was 49.8%, the “anti-PSA activity (in words)” value ([5]; 200 mg/kg po) was “statistically significant anti-PSA activity” and the “Ave. time to death Mean ± S.E.” value ([5]; 200 mg/kg po, N 10) was 441.70 ± 21.5 s. For the same compound, the “Required time (sec.) to death, single animals” value ([5]; 200 mg/kg po, N 10) was 431 s and 548 s and 488 s and 475 s and 367 s and 492 s and 485 s and 352 s and 348 s, the LD50 at 168 h ([6]; iv, read-out: LD50 value (mg/kg body weight) Mouse i.v.) was 344 mg/kg and the LD50 at 168 h ([6]; po, read-out: LD50 value (mg/kg body weight) Mouse p.o.) was > 10000 mg/kg. For the same compound, the LD50 at 168 h [7] was > 10000 mg/kg, the inhibition in vivo at 50 mg/kg ([8]; read-out: Inhibition, Anti-serum Dilution: × 12) was 20.8% and the inhibition in vivo at 50 mg/kg ([8]; read-out: Inhibition, Anti-serum Dilution: × 24) was 23%.

Reference: patent US4822791A, “Pharmaceutical compositions of-2,2-1,1-[bis-2,2'-(3,1-benzoxazin-4-one)9 ethylenes” (priority 1984, dated 1989)
